In publication PMC11291853, “Haemodynamic, hormonal and renal actions of osteocrin in normal sheep” (Experimental Physiology, 2024):
Where no end group is shown, it is not given here.

What was measured:
[1] = tested on: normal conscious sheep; experiment: Haemodynamic and haematocrit responses to stepped OSTN infusion; format: in vivo; settings: for Fall in mean arterial pressure (MAP) compared with time-matched vehicle control: sheep n = 8
Protocol: Eight Coopworth ewes (4–6 years; 42–60 kg; Lincoln University Farm, New Zealand) were instrumented under general anaesthesia (induced by 0.5 mg/kg diazepam I.V. and 4 mg/kg ketamine I.V. and maintained with a mixture of isoflurane and oxygen) and using approved peri‐ and postoperative antibiotics (20 mg/kg cephazolin I.V.; 6.6–20 mg/kg oxytetracycline I.V.) and analgesia (4 mg/kg carprofen I.V.). Sheep were instrumented via a 50‐mm‐long neck incision, allowing cannulation of the left carotid artery (16 gauge Angiocath; Becton Dickinson, Sandy, UT, USA) for direct measurement of mean arterial pressure (MAP) and heart rate (HR). A polyethylene catheter was placed in the left jugular vein for blood sampling and recording of central venous pressure (CVP). A Swan–Ganz thermodilution catheter (Edwards Life Sciences, Irvine, CA, USA) was placed in the pulmonary artery via the jugular vein for the measurement of cardiac output (CO). The urinary bladder was catheterized per urethra for timed urine collections (Charles, Espiner, Nicholls et al., [1996]). Animals recovered for ≥5 days before commencing the study protocol.
(§1) Sheep received I.V. infusions of increasing doses of ovine proOSTN (83–133), the putative 51 aa circulating peptide (at 2.5, 25 and 250 pmol/kg/min for 1 h each; Mimotopes, Melbourne, Victoria, Australia) and a vehicle control (0.9% saline) administered on separate days, ≥1 day apart, in a balanced random order.
Haemodynamic measurements [HR, MAP, CVP and CO, and calculated total peripheral resistance (CTPR = MAP/CO)] were recorded at 30 min intervals in the hour preceding the first dose (baseline) and at 15, 30, 45 and 60 min during each infusion. […] Measurements were determined by online computer‐assisted analysis (PowerLab Systems; ADInstruments, Dunedin, New Zealand) and made with the animals standing quietly in their metabolic crates (Charles, Espiner, Nicholls et al., [1996]).
(§2) Venous blood samples were obtained at 30 min and immediately preceding commencement of the first infusion (baseline) and at 30 min intervals for the duration of the study day. Samples were taken into tubes on ice, centrifuged at 4°C and stored at −20°C before assaying. Following extraction over C18 SepPac cartridges (Waters Corp., Milford, MA, USA), plasma concentrations of cGMP (Charles et al., [1990]), ANP (Charles et al., [1990]), BNP (Pemberton et al., [1997]), CNP (Charles et al., [1995]) and N‐terminal proCNP (NTproCNP) (Wilson et al., [2015]), were measured by radioimmunoassay (RIA) as previously described. Non‐extracted plasma renin activity (PRA) (Dunn & Espiner, [1976]) and aldosterone (Lun et al., [1983]) were measured as previously described. Cyclic AMP was measured by enzyme‐linked immunosorbent assay (catalogue no. ADI‐900‐163; Enzo Life Sciences, Farmingdale, NY, USA). For each analyte, all samples from individual animals were measured in the same assay to avoid interassay variability. Haematocrit concentrations were measured with every blood sample taken.

[2] = tested on: normal conscious sheep; experiment: Plasma renin activity and aldosterone responses to stepped OSTN infusion; format: in vivo; settings: sheep n = 8, mean ± SD
Protocol: as §1, §2

[3] = Plasma OSTN concentration, metabolic clearance rate and half-life during and after stepped I.V. infusion (OSTN RIA); format: in vivo, sheep; settings: mean ± SD; for level at time molar at 1 h: sheep, sheep n = 8, RIA
Protocol: as §1, §2
Osteocrin concentrations in the infusate were measured to calculate the infusion rate and metabolic clearance rate (MCR) of the peptide (MCR = infusion rate/plateau − baseline level).
Human proOSTN (83–112) […] was iodinated using 0.5 mCi Na^125I in the presence of […] chloramine‐T in […] phosphate buffer, pH 7.5, for 20 s, followed by the addition of 50 mg cysteine, 25 mg BSA and 20 mg KI in […] buffer. The resulting mixture was loaded onto a 10 cm RP300 Brownlee column and eluted with a gradient from 0% to 60% acetonitrile in 49 mmol/L KH2PO4 buffer, pH 2.9, over 30 min at 1 mL/min, collecting 0.5 mL fractions. The fraction containing the major peak of radioactive [^125I]‐proOSTN (83–112) was used in the RIA. Peptide standards were made from synthetic human proOSTN (83–133) taking into account the purity data supplied. All standards, sample extracts, antisera and tracer solutions were made up in pH 7.4 assay buffer (0.1% BSA in 0.1 M phosphate buffer). Fifty microlitres of sample extract or 1−1000 pmol/L of human proOSTN (83–133) standard (all in duplicate) were incubated with 50 μL antiserum H‐028‐68 (Phoenix Pharmaceuticals) at a dilution of 1:20,000 for 24 h at 4°C, followed by addition of 50 μL of tracer solution [^125I]‐proOSTN (83–112) containing 3000 cpm for an additional 24 h at 4°C. Bound and free [^125I]‐proOSTN (83–112) were separated by a solid‐phase second antibody method (Sac‐Cell, Donkey‐Anti Rabbit; IDS, UK), and the radioactivity in the bound [^125I]‐proOSTN (83–112) pellet was measured in a PerkinElmer Wizard2 10‐Detector Gamma Counter. Ovine concentrations of OSTN were extrapolated from the human standards, taking into account ovine proOSTN (83–133) cross‐reactivity. Ovine proOSTN (83–112) cross‐reactivity in the ANP, BNP and CNP RIA was <0.005%.

[4] = 1 h, end of OSTN 2.5 pmol/kg/min I.V.
[5] = 2 h, end of OSTN 25 pmol/kg/min I.V.
[6] = 3 h, end of OSTN 250 pmol/kg/min I.V.
[7] = 4 h, 1 h after end of infusions
[8] = 5 h, 2 h after end of infusions

SFSGFGSPLDRLSAGSVSHKGKQRKVVDHPKRRFGIPMDRIGRNRLSNSRG [OSTN]
Fall in mean arterial pressure (MAP) compared with time-matched vehicle control ([1]; end of 2.5 pmol/kg/min infusion period): ~2 mmHg
Fall in mean arterial pressure (MAP) compared with time-matched vehicle control ([1]; end of 25 pmol/kg/min infusion period): ~7 mmHg
Fall in mean arterial pressure (MAP) compared with time-matched vehicle control ([1]; end of 250 pmol/kg/min infusion period): ~12 mmHg
Heart rate (HR) ([1]; stepped OSTN infusions vs vehicle, P = 0.140): did not significantly alter
Calculated total peripheral resistance (CTPR) ([1]; stepped OSTN infusions vs vehicle, P = 0.356): did not significantly alter
Haematocrit ([1]; stepped OSTN infusions vs vehicle, P = 0.360): did not significantly alter
Cardiac output (CO) ([1]; stepped OSTN infusions vs vehicle, P = 0.546): did not significantly alter
Central venous pressure (CVP) ([1]; vs vehicle, P = 0.003, significant reductions at 25 and 250 pmol/kg/min): reduced
Plasma aldosterone [2, 4]: 199 ± 156 pmol/L
Plasma renin activity [2, 4]: 0.153 ± 0.070 nmol/L/h
Plasma aldosterone [2, 5]: 176 ± 137 pmol/L
Plasma renin activity [2, 5]: 0.153 ± 0.065 nmol/L/h
Plasma aldosterone [2, 6]: 167 ± 157 pmol/L
Plasma renin activity [2, 6]: 0.155 ± 0.075 nmol/L/h
Plasma aldosterone [2, 7]: 153 ± 142 pmol/L
Plasma renin activity [2, 7]: 0.186 ± 0.109 nmol/L/h
Plasma aldosterone [2, 8]: 192 ± 130 pmol/L
Plasma renin activity [2, 8]: 0.241 ± 0.181 nmol/L/h
half-life ([3]; Coopworth, plasma, iv, normal sheep, after end of 250 pmol/kg/min infusion, samples at 1-15 min, read-out: Osteocrin plasma half-life): 5.7 ± 1.8 min
level at time molar at 1 h ([3]; Coopworth, plasma, iv, 2.5 pmol/kg/min, end of 60 min I.V. infusion at 2.5 pmol/kg/min): 0.0287 ± 0.008 nM
level at time molar at 1 h ([3]; Coopworth, plasma, iv, 25 pmol/kg/min, end of 60 min I.V. infusion at 25 pmol/kg/min): 0.48 ± 0.195 nM
level at time molar at 1 h ([3]; Coopworth, plasma, iv, 250 pmol/kg/min, end of 60 min I.V. infusion at 250 pmol/kg/min): 6.09 ± 0.75 nM
Osteocrin plasma half-life ([3]; normal sheep, after end of 250 pmol/kg/min infusion, samples at 1-15 min): ~6 min
